Measured values as given in ChEMBL document CHEMBL2021873, “Blocking HIV-1 entry by a gp120 surface binding inhibitor” (Bioorg Med Chem Lett, 2012).
pEC50, pIC50: −log10 of the molar value. Blank lines part the entries; values can stand above or below the compound they belong to. Calls of active or inactive are those of the source. The calls are words filed in the database; no cut-off is given here.

Experiments:
[1] = tested on: Human immunodeficiency virus 1; assay: Competitive inhibition of Human immunodeficiency virus 1 3B gp120 V3 loop assessed as blockade of 447-52D antibody binding by ELISA
[2] = (§1) Inhibition of Human immunodeficiency virus 1 3B gp120 expressed in african green monkey COS cells assessed as inhibition of […] between gp120 and CD4 expressed on human TZM-bl cells by ELISA; assay type: cell-based
[3] = tested on: Human immunodeficiency virus 1; assay: Antiviral activity against Human immunodeficiency virus 1 Clade B WITO4160.33 infected in human TZM-bl cells after 2 days by luciferase reporter gene analysis; assay type: functional, organism-based; conditions: Human immunodeficiency virus 1, Clade B WITO4160.33, TZM-bl, 48 h
[4] = tested on: Human immunodeficiency virus 1; assay: Antiviral activity against Human immunodeficiency virus 1 Clade C ZM197M.PB7 infected in human TZM-bl cells after 2 days by luciferase reporter gene analysis; assay type: functional, organism-based; conditions: Human immunodeficiency virus 1, Clade C ZM197M.PB7, TZM-bl, 48 h
[5] = tested on: Human immunodeficiency virus 1; assay: Antiviral activity against Human immunodeficiency virus 1 Clade B 7165.18 infected in human TZM-bl cells after 2 days by luciferase reporter gene analysis; assay type: functional, organism-based; conditions: Human immunodeficiency virus 1, Clade B 7165.18, TZM-bl, 48 h
[6] = tested on: Human immunodeficiency virus 1; assay: Antiviral activity against Human immunodeficiency virus 1 YU-2; assay type: functional; conditions: isolate YU2
[7] = tested on: Human immunodeficiency virus 1; assay: Antiviral activity against Human immunodeficiency virus 1 Clade B NL4.3 infected in human TZM-bl cells after 2 days by luciferase reporter gene analysis; assay type: functional, organism-based; conditions: Human immunodeficiency virus 1, Clade B NL4.3, TZM-bl, 48 h
[8] = tested on: Human immunodeficiency virus 1; assay: Antiviral activity against Human immunodeficiency virus 1 DH012; assay type: functional, organism-based
[9] = tested on: Human immunodeficiency virus 1; assay: Competitive inhibition of Human immunodeficiency virus 1 3B gp120 glycan loop assessed as blockade of 2G12 antibody binding by ELISA
[10] = tested on: Human immunodeficiency virus 1; assay: Antiviral activity against Human immunodeficiency virus 1 3B infected in human TZM-bl cells assessed as inhibition of viral replication at 1 uM by luminometric analysis; assay type: functional, organism-based; conditions: TDE = time-dependent effect
COS = assay: as §1; assay type: cell-based
[11] = tested on: Human immunodeficiency virus 1; assay: Antiviral activity against Human immunodeficiency virus 1 Clade C Du123.6 infected in human TZM-bl cells after 2 days by luciferase reporter gene analysis; assay type: functional, organism-based; conditions: Human immunodeficiency virus 1, Clade C Du123.6, TZM-bl, 48 h
[12] = tested on: Human immunodeficiency virus 1; assay: Antiviral activity against Human immunodeficiency virus 1 Clade B SS1196.1 infected in human TZM-bl cells after 2 days by luciferase reporter gene analysis; assay type: functional, organism-based; conditions: Human immunodeficiency virus 1, Clade B SS1196.1, TZM-bl, 48 h
[13] = tested on: Human immunodeficiency virus 1; assay: Antiviral activity against Human immunodeficiency virus 1 Clade B RHPA4259.7 infected in human TZM-bl cells after 2 days by luciferase reporter gene analysis; assay type: functional, organism-based; conditions: Human immunodeficiency virus 1, Clade B RHPA4259.7, TZM-bl, 48 h
[14] = tested on: Human immunodeficiency virus 1; assay: Antiviral activity against Human immunodeficiency virus 1 Clade C Du151.2 infected in human TZM-bl cells after 2 days by luciferase reporter gene analysis; assay type: functional, organism-based; conditions: Human immunodeficiency virus 1, Clade C Du151.2, TZM-bl, 48 h
[15] = tested on: Human immunodeficiency virus 1; assay: Antiviral activity against Human immunodeficiency virus 1 Clade B 5768.4 infected in human TZM-bl cells after 2 days by luciferase reporter gene analysis; assay type: functional, organism-based; conditions: Human immunodeficiency virus 1, Clade B 5768.4, TZM-bl, 48 h
[16] = tested on: Human immunodeficiency virus 1; assay: Antiviral activity against Human immunodeficiency virus 1 3B infected in human TZM-bl cells assessed as inhibition of viral replication at 0.33 uM by luminometric analysis; assay type: functional, organism-based; conditions: TDE = time-dependent effect
[17] = tested on: Human immunodeficiency virus 1; assay: Antiviral activity against BMS-378806-resistant Human immunodeficiency virus 1 YU-2 T/P; assay type: functional; conditions: Human immunodeficiency virus type 1 (isolate YU2)
[18] = tested on: Human immunodeficiency virus 1; assay: Antiviral activity against Human immunodeficiency virus 1 Clade C ZM109F.PB4 infected in human TZM-bl cells after 2 days by luciferase reporter gene analysis; assay type: functional, organism-based; conditions: Human immunodeficiency virus 1, Clade C ZM109F.PB4, TZM-bl, 48 h
[19] = tested on: Human immunodeficiency virus 1; assay: Competitive inhibition of Human immunodeficiency virus 1 3B gp120 V3 loop assessed as blockade of 39F antibody binding by ELISA
[20] = tested on: Human immunodeficiency virus 1; assay: Antiviral activity against Human immunodeficiency virus 1 Clade C Du422.1 infected in human TZM-bl cells after 2 days by luciferase reporter gene analysis; assay type: functional, organism-based; conditions: Human immunodeficiency virus 1, Clade C Du422.1, TZM-bl, 48 h
[21] = tested on: Human immunodeficiency virus 1; assay: Competitive inhibition of Human immunodeficiency virus 1 3B gp120 V3 loop assessed as blockade of PK70 antibody binding by ELISA
[22] = tested on: Human immunodeficiency virus 1; assay: Antiviral activity against BMS-378806-resistant Human immunodeficiency virus 1 DH012 T/P; assay type: functional, organism-based
[23] = tested on: Human immunodeficiency virus 1; assay: Antiviral activity against Human immunodeficiency virus 1 Clade B REJO4541.67 infected in human TZM-bl cells after 2 days by luciferase reporter gene analysis; assay type: functional, organism-based; conditions: Human immunodeficiency virus 1, Clade B REJO4541.67, TZM-bl, 48 h

inhibition [1]: inactive
pEC50 [2]: < 4.15
Structure (SMILES): CCCCOc1c2cc(C(=O)Nc3cc(C(=O)O)cc(C(=O)OCc4ccccc4)c3)cc1Cc1cc(C(=O)Nc3cc(C(=O)O)cc(C(=O)OCc4ccccc4)c3)cc(c1OCCCC)Cc1cc(C(=O)Nc3cc(C(=O)O)cc(C(=O)OCc4ccccc4)c3)cc(c1OCCCC)Cc1cc(C(=O)Nc3cc(C(=O)O)cc(C(=O)OCc4ccccc4)c3)cc(c1OCCCC)C2

Structure (SMILES): CCCCOc1c2cc(C(=O)Nc3cc(C(=O)O)cc(C(=O)O)c3)cc1Cc1cc(C(=O)Nc3cc(C(=O)O)cc(C(=O)O)c3)cc(c1OCCCC)Cc1cc(C(=O)Nc3cc(C(=O)O)cc(C(=O)O)c3)cc(c1OCCCC)Cc1cc(C(=O)Nc3cc(C(=O)O)cc(C(=O)O)c3)cc(c1OCCCC)C2
inhibition [1]: Dose-dependent effect
pIC50 [3]: 5.74
pIC50 [4]: 5.57
pIC50 [5]: 5.35
Activity [6]: Active
pIC50 [7]: 6.19
Activity [8]: Active
inhibition [9]: inactive
Activity [10]: tde
inhibition (COS): Dose-dependent effect
pIC50 [11]: 5.85
pIC50 [12]: 5.55
pIC50 [13]: 5.51
pIC50 [14]: 5.51
pIC50 [15]: 5.39
Activity [16]: tde
Activity [17]: Active
pIC50 [18]: 5.41
inhibition [19]: Active
pIC50 [20]: 5.74
inhibition [21]: Active
Activity [22]: Active
pIC50 [23]: 5.72
